Where two headings read alike, the source gives them in different places.
Assays:
[1] = test system: mouse cortical neuron; assay: Whole-cell patch-clamp of cortical neuron, perfusion; format: cell-based; conditions: 1 μM via perfusion
Text: FIGS. 13A and 13B: FIG. 13A depicts the structure of TzGly. […] The measurement results were obtained by the whole-cell patch-clamp method, as known and used in the art.

[2] = test system: Retzius (Rz) cells in the ganglion; assay: Intracellular voltage recording of leech ganglion neuron with light flash uncaging; conditions: for neuron spiking activity on addition, before light: ˜100 μM in saline, no flash; for neuron spiking activity after light flash: pulsed Xe lamp flash
Protocol: Hirudo medicinalis has a central nerve cord with several ganglia, each one containing about 400 neurons arranged in a known pattern. (W.-R. Schlue et al., 1980, J. Exp. Biol., 82:23-34). An entire ganglion was mounted on a dish. The transmembrane potential for a single cell (a neuron) in the ganglion was recorded by inserting inside the neuron a glass micropipet with a micrometer-sized end, filled with saturated aqueous KCl that acts as a luggin bridge for an Ag/AgCl electrode. Another Ag/AgCl electrode was used as a reference. The signal was taken with an AM-System 1600 amplifier, and the entire setup was covered with a Faraday cage. A 12 bit A/D acquisition card was used to digitize the data using an ad-hoc program written in QuickBasic.
Low Ca^2+-high Mg^2+ saline solution (NaCl, 102 mM; KCl, 4 mM; CaCl2: 1 mM; and MgCl2: 10 mM; Tris base, pH 5.4 adjusted to 7.4) was perfused through the dish. […] A pulsed Xe lamp located under the dish was used to irradiate the solution. UV light was removed using a band-pass filter at 500 nm.
After impaling the cell with an electrode, many experiments were performed on the same cell to ensure reproducibility. […] 300 seconds later, at 5500 s, a light flash was directed to the ganglion.

[3] = Photorelease of 4AP from [Ru(bpy)2(4AP)2]Cl2 under visible light (UV-vis, NMR); format: physicochemical
Protocol: (§1) UV-vis spectra in water were obtained with an HP 8453 diode array spectrophotometer. RMN ^1H spectra were obtained using a Bruker 500 MHz equipment. CV measurements were performed with a PAR 273A potentiostat. Irradiation was effected by means of a pulsed Xe lamp, (pulse energy ˜0.5 J), with a low-pass filter at 480 nm. Irradiation using a 473 nm DPSS laser gave similar results.
(§2) Several ruthenium polypyridyl complexes present this behavior. (D. V. Pinnick et al., 1984, Inorg. Chem., 23:1440-1445).
Although at pH 7 the spectrum of the irradiated complex is very similar to that of the original complex, a diminished shoulder at 470 nm becomes evident. To determine the nature of the photoreaction, NMR spectra were taken before and after irradiation with visible light. […] After irradiation, this signal decreased, and two new signals appeared at lower fields: one corresponding to the free ligand (m3), and the other corresponding to the aquo-4AP complex (m2), indicating photorelease of the 4AP. These two latter signals integrated for 0.30 and 0.27 of the initial signal, which corresponds to a photoreaction of 60%.
(§3) (See, e.g., E. S. Dodsworth et al., 1986, Chem. Phys. Lett., 124:152-158). The photoactivity of these compounds has been explained in terms of a reaction pathway that involves the transition between the MLCT state to a lower-energy d-d state, which promotes ligand release. There is a direct correspondence between the energy of the MLCT transition and the quantum yield of the photoreaction. For [Ru(bpy)2(4AP)CH3CN]^2+, the photoreaction yield is about φPR=0.4. Since [Ru(bpy)2(4AP)2]Cl2 presents a red-shifted band, a lower photoreaction yield is expected. An estimate based on early experiments leads to an estimate of φPR≅0.02 at 473 nm.

[4] = Dark stability and recombination followed by UV-vis spectra; format: physicochemical
Text: The photoproducts after exposure to light were Ru(bpy)2(4AP)(H2O) and free 4AP.
as §2

[5] = Cyclic voltammetry, redox potential; format: physicochemical; conditions: in water, versus Ag/AgCl
Protocol: as §1, §3
Its aqueous solutions present a strong metal to ligand charge-transfer band (MLCT band) at 450 nm, characteristic of this family of Ru polypyridines.

[6] = Photolysis of [Ru(bpy)2(PMe3)(MTG)]+2, UV-Vis; format: physicochemical
Protocol: A total of 67 mg of [Ru(bpy)2(PMe3)Cl]PF6 were suspended in 4 ml acetone and 2 ml water, and were heated and stirred at 80° C. until dissolution. Evaporated acetone was gradually replaced with water or acetone to keep total volume constant but avoiding precipitation. All the following was performed under dim red light. 100 mg of D(+)methylthiogalactose were added and the mixture was kept at 80° C. for 5 hours: The reaction progress was followed by UV-Vis spectrophotometry until the aquo complex was no longer detectable. The solution was cooled in ice-cold water and saturated [BPh4]^− as sodium salt was added carefully. The pale yellow precipitate was washed six times in ice cold water by resuspending the precipitate and centrifugation. NMR spectra were taken in a 500 MHz Bruker Avance II spectrometer. Photolysis of the NMR sample was performed inside the unopened NMR tube, by means of a custom-built NMR photolysis device based in 10 high current (100 mA) LEDs with emission wavelength centered at 520+/−20 nm.
The complex has a molar absorptivity coefficient of ˜3100 and a maximum absorption wavelength in the visible range at 422 nm. Photolysis quantum yield is 0.3. Successive photolysis products of the same sample are shown in black (FIG. 21).

[7] = test system: E. coli culture; assay: Light-patterned uncaging of MTG in bacterial culture with X-Gal; format: cell-based; conditions: 1 mM complex, 0.02% X-Gal, 20 minutes irradiation, then 37° C.
Protocol: A handheld projector 3M (110 MPro) is used to irradiate for 20 minutes an E. coli culture growing in a piece of 7 cm diameter whatman filter paper soaked in LB medium containing 1 mM [(Ru(bpy)2P(Me)3(MTG)]^+2 and 0.02% X-Gal (FIG. 24A). After image projection, the culture is left at 37° C. for until blue precipitate is noticed (˜40 minutes, FIG. 24B).

[8] = Fluorescence emission quantum yield before and after irradiation; format: physicochemical
Text: All reagents were purchased from Sigma-Aldrich and used as received. Ru(bpy)2Cl2 was synthesized according to the literature using water as solvent (Viala, C.; Coudret, C. Inorg. Chim. Acta 2006, 359: 984-989). UV-vis spectra were taken with a HP8453 diode-array spectrometer. NMR spectra were obtained using a 500 MHz Bruker AM-500. Fluorescence emission measurements were made with a PTI Quantamaster spectrofluorometer, corrected for the instruments response function. Rhodamine B was used as fluorescence standard of emission quantum yield (φ=0.31 in aqueous solutions). Quantum yield of the complex was obtained directly from the ratio of the spectral areas, which present the same shape.
FIG. 20 depicts the emission spectra of the complex during irradiation. The maximum and the shape of the initial emission spectrum is the same as that of the free ligand RhodB-MAPN but the emission quantum yield is much lower, around pt=0.04. Quantum yields are easily calculated integrating the spectral areas. After irradiation with a 473 nm laser, RhodB-MAPN is released and the solution increases its fluorescence up to 6 fold, to φt=0.24.

[9] = Photouncaging quantum yield; format: physicochemical
Protocol: The photouncaging quantum yield measurements were performed with a Nd:YAG diode pumped solid state laser doubled to 473 nm with a constant power of 6.3 mW. The light was collimated and sent through an optical path of 1 cm into a fluorescence glass cuvette, with stirring. Total irradiation energy was measured using a Coherent Fieldmaster FM light meter with a visible light photodiode model SR45.
The quantum yield of rhodamine photorelease was calculated after the analysis of fluorescence emission data during photouncaging at 473 nm. A complete spectrum was obtained once per second. Absorption of light by the complex [Ru(bpy)2(RhodB-MAPN)Cl]^+ yields the aquo complex [Ru(bpy)2(H2O)Cl]^+ and free RhodB-MAPN. In each irradiation period the amount of aquo complex and free RhodB-MAPN generated is given by the following: δn=δtIφPU(1−10^−AbsT)AbsR/AbsT where δt is the irradiation period, I the light intensity in moles of photons per second, φPU is the quantum yield of photouncaging, AbsR is the absorbance of the photoactive species [Ru(bpy)2(RhodB-MAPN)Cl]^+ at 473 nm and AbsT is the total absorbance of the irradiated solution. By means of finite element calculation of the former equation a photouncaging quantum yield of φPU=0.12 at 25° C. was calculated. This value is in good agreement with the reported quantum yields for similar complexes. […]

[10] = Photorelease of TzGly from [Ru(bpy)2(TzGly)(py)]Cl2; format: physicochemical; conditions: 470 nm

Q: With `NC(C(=O)O)c1nnn[nH]1` (racemic) [TzGly, (RS)-(tetrazol-5-yl)glycine] as the compound, how does the effect on neuron [1] read?
A: spiking

Q: With `[Cl][Ru][Cl].c1ccc(-c2ccccn2)nc1.c1ccc(-c2ccccn2)nc1.c1ccc(-c2ccccn2)nc1` [Ru(bpy)3Cl2, reference compound] as the compound, how does the “neuron spiking activity on addition, before light” value [2] read?
A: without significant changes in activity

Q: What about the “neuron spiking activity after light flash” value ([2]; ˜100 μM) of the same compound?
A: after a short time the activity decreased to the basal level

Q: Which results are given for `Nc1ccncc1.Nc1ccncc1.[Cl-].[Cl-].[Ru+2].c1ccc(-c2ccccn2)nc1.c1ccc(-c2ccccn2)nc1` [[Ru(bpy)2(4AP)2]Cl2]?
A: extent of photoreaction (NMR signal integration) ([3]; after irradiation with visible light): 60%; photoreaction yield φPR ([3]; at 473 nm, estimate based on early experiments): ~0.02; time without dark decomposition ([4]; in the dark): more than 20 hours; 4AP recombination ([4]; irradiated solution, after 7 hours in the dark): less than 4%; stability in the dark ([4]; water): stable in the dark; redox potential of the couple R^III/R^II [5]: 0.76 V; toxicity on the neuron ([2]; during the experiments): Neither toxicity nor a deleterious effect was observed; neuron spiking activity on addition, before light [2]: the activity remained unchanged; neuron spiking activity after light flash ([2]; ˜100 μM): sudden activity was recorded and it remained high after 300 s; neuron spiking activity after second light pulse ([2]; ˜100 μM, second light pulse at 6750 s): even higher activity

Q: For `CC#N.Nc1ccncc1.[Ru+2].c1ccc(-c2ccccn2)nc1.c1ccc(-c2ccccn2)nc1` [[Ru(bpy)2(4AP)CH3CN]^2+], which “photoreaction yield φPR” value [3] is on record?
A: ~0.4

Q: For `CP(C)C.CS[C@@H]1O[C@H](CO)[C@H](O)[C@H](O)[C@H]1O.[Ru+2].c1ccc(-c2ccccn2)nc1.c1ccc(-c2ccccn2)nc1` [[Ru(bpy)2(PMe3)(MTG)]^+2], which photolysis quantum yield [6] is on record?
A: 0.3

Q: And the “time until blue precipitate is noticed” value [7]?
A: ~40 min

Q: With `CCN(CC)c1ccc2c(-c3ccccc3C(=O)N(C)CCC#N)c3ccc(=[N+](CC)CC)cc-3oc2c1.[Cl][Ru+].c1ccc(-c2ccccn2)nc1.c1ccc(-c2ccccn2)nc1` [[Ru(bpy)2(RhodB-MAPN)Cl]^+] as the compound, how does the increase of fluorescence ([8]; after blue light (473 nm) irradiation) read?
A: up to 6 fold

Q: What about the emission quantum yield ([8]; after irradiation with a 473 nm laser) of the same compound?
A: 0.24

Q: What about the emission quantum yield ([8]; aqueous, before irradiation) of the same compound?
A: ~0.04

Q: And the “photouncaging quantum yield φPU” value ([9]; 473 nm, 25° C.)?
A: 0.12

Q: For `C=CCC#N.[Cl][Ru+].c1ccc(-c2ccccn2)nc1.c1ccc(-c2ccccn2)nc1` [[Ru(bpy)2(VACN)Cl]^+], which “photouncaging quantum yield φPU (VACN release)” value [9] is on record?
A: 0.21

Q: With [Ru(bpy)2(TzGly)(py)]Cl2 as the compound, how does the photorelease on irradiation [10] read?
A: photoreleased TzGly
